Read-outs that look alike come from different tables or passages of the source.
How the values were obtained:
MCF7 cells = test: MCF7 breast tumor cell growth inhibition, 72 h, MTT tetrazolium dye assay; type: cell-based, human; conditions: for Tumor cell inhibition (in words) / Potency against MCF7 compared with tamoxifen: 72 h; for RP (relative potency): tamoxifen = 100
Description: The MCF7 cell line is a human tumor cell line. This cell line was cultured in MEM (Eagles) media in a 5% CO^2 atmosphere with 10% fetal calf serum that had been washed twice with dextran coated charcoal to reduce endogenous estrogen levels. The media was supplemented with 1 mM sodium pyruvate and 100 μm non-essential amino acids. The cell line was screened routinely for myoplasma contamination using the GenProbe kit (Fisher). Cells were trypsinized and plated at a density of 5,000 cells/well in 96 well microtiter plates and allowed to attach and recover for 24 hours.
The media was removed by aspiration and replaced with filter sterilized drug (concentration from 10^-4 M to 10^-5 M) in media. The cells were incubated for 72 hours and then stained using the mTT tetrazolium dye assay of Mosmann^36 except that after the media was removed, the blue formazan product was solubilized in 50 μl/well DMSO.

estrogen receptor [1] = biological target: T1, estrogen receptor (Sus scrofa, UniProt Q29040); conditions: for RBA (IC50 ratio between tamoxifen and competitor): Table 7, tamoxifen printed as 1; for Enhancement of estrogen receptor binding affinity: compared to tamoxifen
T1 sequence (Q29040 1-595): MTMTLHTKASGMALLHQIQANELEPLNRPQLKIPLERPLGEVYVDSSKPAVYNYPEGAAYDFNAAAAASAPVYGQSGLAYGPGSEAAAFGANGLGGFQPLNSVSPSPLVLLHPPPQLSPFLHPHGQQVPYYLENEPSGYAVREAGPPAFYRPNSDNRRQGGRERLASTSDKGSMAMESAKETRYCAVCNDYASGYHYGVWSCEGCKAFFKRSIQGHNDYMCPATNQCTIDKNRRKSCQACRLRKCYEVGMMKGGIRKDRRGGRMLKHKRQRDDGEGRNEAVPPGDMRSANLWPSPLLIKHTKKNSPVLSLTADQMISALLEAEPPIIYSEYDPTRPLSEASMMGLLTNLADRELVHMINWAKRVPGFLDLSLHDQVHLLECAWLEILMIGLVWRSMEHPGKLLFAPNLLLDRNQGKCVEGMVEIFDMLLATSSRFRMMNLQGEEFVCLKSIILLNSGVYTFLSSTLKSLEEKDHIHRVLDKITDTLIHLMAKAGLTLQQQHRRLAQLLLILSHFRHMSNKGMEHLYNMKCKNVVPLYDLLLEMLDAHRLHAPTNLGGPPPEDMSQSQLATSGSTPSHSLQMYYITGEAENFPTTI
Description: (§1) A previously reported procedure was modified by the inventors and used for this purpose.^10,11 TEA buffer was used by the Inventors for tissue preparation.
(§2) Briefly, uteri (90 gm) were obtained from immature domestic swine (15 kg) was homogenized in Tris buffer (10 mM, pH 7.4) (1 uterus/180 ml), which contained EDTA (1.5 mM) and sodium Azide (3 mM). The homogenate was centrifuged at 100,000 g for 1 hour at 4° C. Uteri cytosol (contains 2% of protein from corresponding uterus tissue) were then pretreated with dextran-coated charcoal as described.^10 Protein concentrations were determined according to the method of Lowry et al.^12
(§3) *The relative binding affinity (RBA) for the pig uteri estrogen receptor

estrogen receptor [2] = biological target: T2, estrogen receptor (Homo sapiens, UniProt P03372); conditions: cited from earlier work; for Estrogen receptor binding / detection potency (in words): compared to tamoxifen
T2 sequence (P03372 1-595): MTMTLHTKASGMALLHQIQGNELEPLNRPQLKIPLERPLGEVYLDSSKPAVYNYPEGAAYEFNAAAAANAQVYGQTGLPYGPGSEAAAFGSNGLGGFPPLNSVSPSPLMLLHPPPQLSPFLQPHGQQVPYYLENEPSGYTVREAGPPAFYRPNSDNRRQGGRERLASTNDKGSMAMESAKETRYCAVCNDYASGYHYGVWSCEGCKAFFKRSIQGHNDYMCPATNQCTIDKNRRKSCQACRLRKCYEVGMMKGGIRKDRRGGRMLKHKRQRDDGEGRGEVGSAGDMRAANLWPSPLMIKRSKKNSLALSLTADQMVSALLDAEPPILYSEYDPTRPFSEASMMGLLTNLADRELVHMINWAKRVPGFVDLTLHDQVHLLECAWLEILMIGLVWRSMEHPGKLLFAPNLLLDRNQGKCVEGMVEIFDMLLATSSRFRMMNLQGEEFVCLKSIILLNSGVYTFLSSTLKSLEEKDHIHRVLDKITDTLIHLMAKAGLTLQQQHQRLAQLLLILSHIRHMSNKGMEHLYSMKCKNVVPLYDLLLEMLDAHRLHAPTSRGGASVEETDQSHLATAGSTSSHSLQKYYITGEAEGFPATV

[3] = compared to tamoxifen; cited from earlier work
in vivo = test: in vivo; parameters: species or system rat; conditions: compared with DTPA-Tamoxifen and DTPA-Vitamin A conjugates
Description: In animal tissue distribution studies, each rate was given 8.9 μCi (0.15 ml) tracer intravenously. The tumor-bearing rats were killed at 1, 3, 6 and 24 h. […] The amount of DES given should occupy tumor estrogen receptor sites. The methods for inducing tumors in rats was as described by those of skill in the art (radiology). […]
Female Fisher 344 rats (250-275 g) (Harlan, Inc., Indianapolis, Ind.) were inoculated with mammary tumor cells using the 13762 tumor cell line (s.c. 10^5 cells/rat). After 14 days, a tumor size of 1-2 cm was observed. For ^131 I-ITX studies, five groups of rats (N=3/group) were anesthetized with ketamine (10-15 mg/rat). The trans ^131 I-ITX was given to four of the five groups (8.9 μCi/rat, i.v.) and biodistribution was studied at 1, 3, 6 and 24 h intervals. In blocking studies, the fifth group of rats was given diethylstilbestrol (DES) (1.2 mg/rat) for 1 h, followed by 8.9 μCi of ^131 I-ITX; biodistribution was studied 6 h later. The tissues were collected at different time intervals. The tissues were weighted and counted for radioactivity. The percent of injected dose per gram of tissue weight was calculated. […]

estrogen receptor [4] = biological target: T1, estrogen receptor; test: biochemical
Description: as §1, §2, §3

[5] = In vivo tissue uptake in rat (% injected dose per organ, n=5)
[6] = Acute/immediate toxicity following i.v. injection in BALB/c mice; conditions: for MTD / Maximum dose tolerated: mouse, in vivo, iv; for Mice died: 20 mg/kg i.v.
Description: Acute toxicity studies were performed in BALB/c female mice with doses tested at 20, 50 and 200 mg/kg (i.v., n=5 mice per dose).

Molecule: CCN(CC)CCOc1ccc(/C(=C(\CCF)c2ccccc2)c2ccccc2)cc1 (single isomer, unassigned) [IV (Cis), N,N-diethyl-fluorotamoxifen]
- Tumor cell inhibition (in words) (MCF7 cells): effective as inhibiting a breast tumor cell line
- Tumor cell inhibition (in words) (MCF7 cells; listed as cis N,N-diethyl-fluoro): more potent than the trans isomers
- RBA (relative binding affinity) (estrogen receptor [1]; tamoxifen = 100): 100

Molecule: CC/C(=C(/c1ccccc1)c1ccc(OCCN2CC2)cc1)c1ccccc1 (single isomer, unassigned) [cis isomer of tamoxifen azizidine]
- Decrease in estrogen receptor binding affinity (estrogen receptor [2]; versus trans isomer or native tamoxifen): 50 fold

Molecule: CC/C(=C(\c1ccc(O)cc1)c1ccc(OCCN(C)C)cc1)c1ccccc1 [4-hydroxytamoxifen]
- Anti-estrogenic / in vivo activity (in words) [3]: less effective than tamoxifen in vivo

Molecule: CC/C(=C(\c1ccc(OC)cc1)c1ccc(OCCN(C)C)cc1)c1ccccc1 [4-methoxy phenyl derivative]
- Anti-estrogenic / in vivo activity (in words) [3]: about the same as native tamoxifen

Molecule: CCN(CC)CCOc1ccc(/C(=C(/CCCBr)c2ccccc2)c2ccccc2)cc1 [(XI) BrM (trans), N,N-diethyl-bromomethyltamoxifen]
- RBA (IC50 ratio between tamoxifen and competitor) (estrogen receptor [1]): 150
- Enhancement of estrogen receptor binding affinity (estrogen receptor [1]): 50 fold

Molecule: CCN(CC)CCOc1ccc(/C(=C(/CCCCl)c2ccccc2)c2ccccc2)cc1 [(XII) ClM (trans), N,N-diethyl-chloromethyltamoxifen]
- IC50 (estrogen receptor [1]; read-out: IC50 estrogen receptor binding, pig uterus, [3H]estradiol 5 nM): 0.4 µM

Molecule: CC/C(=C(\c1ccc(Cl)cc1)c1ccc(OCCN(C)C)cc1)c1ccccc1 [Compound 4-chloro]
- Estrogen receptor binding / detection potency (in words) (estrogen receptor [2]): approximately equal activity for estrogen receptor binding affinity
- Anti-estrogenic / in vivo activity (in words) [3]: lower anti-estrogenic activity than tamoxifen

Molecule: CC/C(=C(\c1ccc(F)cc1)c1ccc(OCCN(C)C)cc1)c1ccccc1 [Compound 4-fluoro]
- Estrogen receptor binding / detection potency (in words) (estrogen receptor [2]): approximately equal activity for estrogen receptor binding affinity
- Anti-estrogenic / in vivo activity (in words) [3]: lower anti-estrogenic activity than tamoxifen

Molecule: CC/C(=C(\c1ccc(I)cc1)c1ccc(OCCN(C)C)cc1)c1ccccc1 [Compound 4-iodo]
- Estrogen receptor binding / detection potency (in words) (estrogen receptor [2]): greater potency than tamoxifen

Molecule: CC/C(=C(\c1ccc(C)cc1)c1ccc(OCCN(C)C)cc1)c1ccccc1 [Compound 4-methyl]
- Estrogen receptor binding / detection potency (in words) (estrogen receptor [2]): approximately equal activity for estrogen receptor binding affinity
- Anti-estrogenic / in vivo activity (in words) [3]: lower anti-estrogenic activity than tamoxifen

Molecule: CCN(CC)CCOc1ccc(C(=C(CCCF)c2ccccc2)c2ccccc2)cc1 [Compound VI, N,N-diethyl-fluoromethyltamoxifen]
- Tumor cell inhibition (in words) (MCF7 cells): effective as inhibiting a breast tumor cell line

Molecule: CCN(CC)CCOc1ccc(C(=C(CCCI)c2ccccc2)c2ccccc2)cc1 [Compound X, N,N-diethyl-iodomethyltamoxifen]
- Tumor cell inhibition (in words) (MCF7 cells): effective as inhibiting a breast tumor cell line

Molecule: CCN(CC)CCOc1ccc(C(=C(CCCBr)c2ccccc2)c2ccccc2)cc1 [Compound XI, 1-[4-(2-Diethylaminoethoxy)phenyl]-1,2-diphenyl-5-bromo-1-entene]
- Potency against MCF7 compared with tamoxifen (MCF7 cells): ~25 fold
- Estrogen receptor binding (in words) (estrogen receptor [1]; listed as Bromomethyl tamoxifen): binds to estrogen receptors with greater affinity than the other halogenated tamoxifen analogs tested
- Estrogen receptor binding (in words) (estrogen receptor [1]; listed as bromomethyl-Tx): bind to estrogen receptors greater than other halogenated tamoxifens tested

Molecule: NCCc1ccc(NC(=O)CN(CCN(CCN(CC(=O)O)CC(=O)O)CC(=O)O)CC(=O)O)cc1 [DTPA, DTPAp-(amino ethyl) anilide, reference compound]
- Blood clearance and tumor-to-tissue uptake ratios (in words) (in vivo): faster blood clearance and less tumor-to-tissue uptake ratios

Molecule: CCN(CC)CCOc1ccc(/C(=C(/CCCO)c2ccccc2)c2ccccc2)cc1 [III (trans), N,N-diethyl-hydroxymethyltamoxifen]
- RP (relative potency) (MCF7 cells): 50
- RBA (relative binding affinity) (estrogen receptor [1]; tamoxifen = 100): 400

Molecule: CCN(CC)CCOc1ccc(/C(=C(/CCF)c2ccccc2)c2ccccc2)cc1 [IV (trans), N,N-diethyl-fluorotamoxifen]
- Enhancement of estrogen receptor binding affinity (estrogen receptor [1]): two and a half times

Molecule: CCN(CC)CCOc1ccc(/C(=C(/CCCN=[N+]=[N-])c2ccccc2)c2ccccc2)cc1 [TX-N3 (trans), Tamoxifen Azide]
- RBA (relative binding affinity) (estrogen receptor [1]): 80
- IC50 (estrogen receptor [4]): 38 µM
- Ki (estrogen receptor [4]): 18.7 µM

Molecule: CCN(CC)CCOc1ccc(/C(=C(/CCCN)c2ccccc2)c2ccccc2)cc1 [TX-NH2 (trans), Amino Tamoxifen]
- RBA (relative binding affinity) (estrogen receptor [1]; tamoxifen = 100): 10
- IC50 (estrogen receptor [4]): 300 µM
- Ki (estrogen receptor [4]): 150 µM

Molecule: CCN(CC)CCOc1ccc(/C(=C(\CCCF)c2ccccc2)c2ccccc2)cc1 [VI (Cis), N,N-diethyl-fluoromethyltamoxifen]
- Potency against MCF7 compared with tamoxifen (MCF7 cells): 3 fold
- Tumor cell inhibition (in words) (MCF7 cells): more potent than the trans isomers

Molecule: CCN(CC)CCOc1ccc(/C(=C(\CCCI)c2ccccc2)c2ccccc2)cc1 [X (cis), N,N-diethyl-iodomethyltamoxifen]
- Tumor cell inhibition (in words) (MCF7 cells): more potent than the trans isomers
- RBA (IC50 ratio between tamoxifen and competitor) (estrogen receptor [1]): 10
- Enhancement of estrogen receptor binding affinity (estrogen receptor [1]): 10 fold
- RBA (relative binding affinity) (estrogen receptor [1]; tamoxifen = 100): 1,000

Molecule: CCN(CC)CCOc1ccc(/C(=C(/CCC[131I])c2ccccc2)c2ccccc2)cc1 [^131 I-IMTX (trans)]
- Uterus/muscle ratio ([5]; first value (3 h)): 11.0
- Uterus/muscle ratio ([5]; second value (6 h)): 7.6
- Uterus/muscle ratio ([5]; third value (24 h)): 3.6

Molecule: CCN(CC)CCOc1ccc(/C(=C(\CCCBr)c2ccccc2)c2ccccc2)cc1 [cis-BTX]
- MTD [6]: 50 mg/kg

Molecule: CCN(CC)CCOc1ccc(/C(=C(\CCCCl)c2ccccc2)c2ccccc2)cc1 [cis-CITX, chlorotamoxifen]
- MTD [6]: 50 mg/kg

Molecule: CCN(CC)CCOc1ccc(/C(=C(\CCCI)c2ccccc2)c2ccccc2)cc1 [cis-ITX, iodotamoxifen]
- MTD [6]: 50 mg/kg

Molecule: CCN(CC)CCOc1ccc(/C(=C(/CCCBr)c2ccccc2)c2ccccc2)cc1 [trans-BTX]
- MTD [6]: 50 mg/kg

Molecule: CCN(CC)CCOc1ccc(/C(=C(/CCCI)c2ccccc2)c2ccccc2)cc1 [trans-ITX, iodotamoxifen]
- Mice died [6]: 3/4
- Mice died ([6]; listed as trans ITX): 3 out of 4
- Toxicity (in words) ([6]; i.v.): lethal effects of transITX were immediate
- MTD [6]: 8 mg/kg

Molecule: Fluorotamoxifen [(VII) FTX (Cis)]
- RP (relative potency) (MCF7 cells): 224

Molecule: fluorotamoxifen [cis-^18 F-FTX]
- Maximum dose tolerated [6]: 50 mg/kg

Molecule: fluorotamoxifen [trans^18 F-FTX]
- Maximum dose tolerated [6]: 200 mg/kg
